According to patent US9604975B2, “Indolyl-pyridone derivatives having checkpoint kinase 1 inhibitory activity” (Vernalis (R&D) Ltd., priority 2009, dated 2017):
pIC50: −log10 of the molar value.

Target: T1, CHK1 (Homo sapiens, UniProt O14757)
T1 construct: His; purchased Invitrogen
T1 sequence (O14757 1-476): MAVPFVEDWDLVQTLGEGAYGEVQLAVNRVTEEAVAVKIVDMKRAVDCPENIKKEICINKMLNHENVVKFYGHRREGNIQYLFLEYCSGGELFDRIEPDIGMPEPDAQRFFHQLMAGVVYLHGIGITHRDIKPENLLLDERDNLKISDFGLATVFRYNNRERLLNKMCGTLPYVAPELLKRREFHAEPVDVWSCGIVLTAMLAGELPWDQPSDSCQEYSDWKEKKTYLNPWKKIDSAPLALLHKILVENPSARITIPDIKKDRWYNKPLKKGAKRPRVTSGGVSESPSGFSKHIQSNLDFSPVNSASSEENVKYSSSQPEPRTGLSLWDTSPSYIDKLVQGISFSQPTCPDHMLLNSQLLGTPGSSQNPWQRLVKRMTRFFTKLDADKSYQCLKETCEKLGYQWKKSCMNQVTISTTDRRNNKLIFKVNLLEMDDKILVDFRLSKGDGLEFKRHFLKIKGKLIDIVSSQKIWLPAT
Assay: CHK1 Enzyme Assay (phosphorylation of Chktide peptide, 33P-ATP filter assay)
Assay type: biochemical
Conditions: 12.5 nM His-CHK1, 0.01 mM ATP, 40 minutes at 30° C.; read-out: CHK1 Enzyme Activity (IC50 range)
Description: Assays for the CHK1 kinase activity were carried out by monitoring the phosphorylation of a synthetic peptide Chktide with the amino acid sequence, […]. The assay mixture containing the inhibitor and CHK1 enzyme was mixed together in a microtiter plate in a final volume of 50 μl and incubated for 40 minutes at 30° C.
The assay mixture contained 0.01 mM unlabeled ATP, 0.5 μCi ^33P-γ-ATP, 14.8 μM Chktide, 0.1 mg/mL BSA, 50 mM Hepes-NaOH pH 7.5 and 12.5 nM His-CHK1 (Invitrogen) enzyme. The reaction was stopped by adding 50 μL of 50 mM phosphoric acid. 90 μL of the mixture was transferred to a pre-wetted 96-well multi-screen MAPHNOB filtration plate (Millipore) and filtered on a vacuum manifold. The filter plate was washed with 3 successive additions of 200 μl 50 mM phosphoric acid and then with 100 μL methanol. The filtration plate was dried for 10 min at 65° C., scintillant added and phosphorylated peptide quantified in a scintillation counter (Trilux, PerkinElmer).

SMILES | pIC50
O=C(Nc1cnn(Cc2ccccc2)c1)c1c[nH]c(=O)c(-c2cc3ccccc3[nH]2)c1 [Example 1, 5-(1H-Indol-2-yl)-6-oxo-1,6-dihydro-pyridine-3-carboxylic acid (1-benzyl-1H-pyrazol-4-yl)-amide] | > 7.00
Cc1ccccc1Cn1cc(NC(=O)c2c[nH]c(=O)c(-c3cc4ccccc4[nH]3)c2)cn1 [Example 3, 5-(1H-Indol-2-yl)-6-oxo-1,6-dihydro-pyridine-3-carboxylic acid [1-(2-methyl-benzyl)-1H-pyrazol-4-yl]-amide] | 5.82 to 6.30
Cc1ccc(Cn2cc(NC(=O)c3c[nH]c(=O)c(-c4cc5ccccc5[nH]4)c3)cn2)cc1 [Example 5, 5-(1H-Indol-2-yl)-6-oxo-1,6-dihydro-pyridine-3-carboxylic acid[1-(4-methyl-benzyl)-1H-pyrazol-4-yl]-amide] | 6.30 to 7.00
N#Cc1cccc(Cn2cc(NC(=O)c3c[nH]c(=O)c(-c4cc5ccccc5[nH]4)c3)cn2)c1 [Example 6, 5-(1H-Indol-2-yl)-6-oxo-1,6-dihydro-pyridine-3-carboxylic acid [1-(3-cyano-benzyl)-1H-pyrazol-4-yl]-amide] | 6.30 to 7.00
N#Cc1ccc(Cn2cc(NC(=O)c3c[nH]c(=O)c(-c4cc5ccccc5[nH]4)c3)cn2)cc1 [Example 7, 5-(1H-Indol-2-yl)-6-oxo-1,6-dihydro-pyridine-3-carboxylic acid [1-(4-cyano-benzyl)-1H-pyrazol-4-yl]-amide] | 5.82 to 6.30
O=C(Nc1cnn(Cc2cccc(F)c2)c1)c1c[nH]c(=O)c(-c2cc3ccccc3[nH]2)c1 [Example 9, 5-(1H-Indol-2-yl)-6-oxo-1,6-dihydro-pyridine-3-carboxylic acid [1-(3-fluoro-benzyl)-1H-pyrazol-4-yl]-amide] | > 7.00
O=C(Nc1cnn(Cc2ccc(F)cc2)c1)c1c[nH]c(=O)c(-c2cc3ccccc3[nH]2)c1 [Example 10, 5-(1H-Indol-2-yl)-6-oxo-1,6-dihydro-pyridine-3-carboxylic acid [1-(4-fluoro-benzyl)-1H-pyrazol-4-yl]-amide] | > 7.00
O=C(Nc1cnn(Cc2ccc(Cl)cc2)c1)c1c[nH]c(=O)c(-c2cc3ccccc3[nH]2)c1 [Example 12, 5-(1H-Indol-2-yl)-6-oxo-1,6-dihydro-pyridine-3-carboxylic acid [1-(4-chloro-benzyl)-1H-pyrazol-4-yl]-amide] | 6.30 to 7.00
Cc1ccc(Cn2cc(NC(=O)c3c[nH]c(=O)c(-c4cc5ccccc5[nH]4)c3)cn2)cc1F [Example 14, 5-(1H-Indol-2-yl)-6-oxo-1,6-dihydro-pyridine-3-carboxylic acid [1-(3-fluoro-4-methyl-benzyl)-1H-pyrazol-4-yl]-amide] | 6.30 to 7.00
CN1CCN(C(=O)c2ccc3[nH]c(-c4cc(C(=O)Nc5cnn(Cc6ccccc6)c5)c[nH]c4=O)cc3c2)CC1 [Example 15, 5-[5-(4-Methyl-piperazine-1-carbonyl)-1H-indol-2-yl]-6-oxo-1,6-dihydro-pyridine-3-carboxylic acid (1-benzyl-1H-pyrazol-4-yl)-amide] | > 7.00
O=C(Nc1cnn(Cc2ccccc2)c1)c1c[nH]c(=O)c(-c2cc3cc(CN4CCNCC4)ccc3[nH]2)c1 [Example 16, 6-oxo-5-(5-piperazin-1-ylmethyl-1H-indol-2-yl)-1,6-dihydro-pyridine-3-carboxylic acid (1-benzyl-1H-pyrazol-4-yl)-amide] | > 7.00
Cc1[nH]c(=O)c(-c2cc3ccccc3[nH]2)cc1C(=O)Nc1cnn(Cc2cccc(F)c2)c1 [Example 18, 5-(1H-Indol-2-yl)-2-methyl-6-oxo-1,6-dihydro-pyridine-3-carboxylic acid [1-(3-fluoro-benzyl)-1H-pyrazol-4-yl]-amide] | 5.82 to 6.30
Cc1[nH]c(=O)c(-c2cc3ccccc3[nH]2)cc1C(=O)Nc1cnn(Cc2ccc(F)c(F)c2)c1 [Example 19, 5-(1H-Indol-2-yl)-2-methyl-6-oxo-1,6-dihydro-pyridine-3-carboxylic acid [1-(3,4-difluoro-benzyl)-1H-pyrazol-4-yl]-amide] | 6.30 to 7.00
O=C(Nc1c[nH]c(=O)c(-c2cc3ccccc3[nH]2)c1)c1cnn(Cc2cccc(C(F)(F)F)c2)c1 [Example 23, 1-(3-Trifluoromethyl-benzyl)-1H-pyrazole-4-carboxylic acid [5-(1H-indol-2-yl)-6-oxo-1,6-dihydro-pyridin-3-yl]-amide] | > 7.00
O=C(Nc1c[nH]c(=O)c(-c2cc3ccccc3[nH]2)c1)c1cnn(Cc2cccc(Cl)c2)c1 [Example 27, 1-(3-Chloro-benzyl)-1H-pyrazole-4-carboxylic acid [5-(1H-indol-2-yl)-6-oxo-1,6-dihydro-pyridin-3-yl]-amide] | > 7.00
O=C(Nc1c[nH]c(=O)c(-c2cc3ccccc3[nH]2)c1)c1cnn(Cc2ccc(Cl)cc2)c1 [Example 28, 1-(4-Chloro-benzyl)-1H-pyrazole-4-carboxylic acid [5-(1H-indol-2-yl)-6-oxo-1,6-dihydro-pyridin-3-yl]-amide] | > 7.00
Cc1ccc(Cn2cc(C(=O)Nc3c[nH]c(=O)c(-c4cc5ccccc5[nH]4)c3)cn2)cc1 [Example 29, 1-(4-Methyl-benzyl)-1H-pyrazole-4-carboxylic acid [5-(1H-indol-2-yl)-6-oxo-1,6-dihydro-pyridin-3-yl]-amide] | > 7.00

The next lines start with the values.

pIC50 | SMILES
6.30 to 7.00 | COc1ccc(Cn2cc(NC(=O)c3c[nH]c(=O)c(-c4cc5ccccc5[nH]4)c3)cn2)cc1 [Example 2, 5-(1H-Indol-2-yl)-6-oxo-1,6-dihydro-pyridine-3-carboxylic acid [1-(4-methoxy-benzyl)-1H-pyrazol-4-yl]-amide]
> 7.00 | Cc1cccc(Cn2cc(NC(=O)c3c[nH]c(=O)c(-c4cc5ccccc5[nH]4)c3)cn2)c1 [Example 4, 5-(1H-Indol-2-yl)-6-oxo-1,6-dihydro-pyridine-3-carboxylic acid[1-(3-methyl-benzyl)-1H-pyrazol-4-yl]-amide]
6.30 to 7.00 | O=C(Nc1cnn(Cc2ccccc2F)c1)c1c[nH]c(=O)c(-c2cc3ccccc3[nH]2)c1 [Example 8, 5-(1H-Indol-2-yl)-6-oxo-1,6-dihydro-pyridine-3-carboxylic acid [1-(2-fluoro-benzyl)-1H-pyrazol-4-yl]-amide]
> 7.00 | O=C(Nc1cnn(Cc2ccc(F)c(F)c2)c1)c1c[nH]c(=O)c(-c2cc3ccccc3[nH]2)c1 [Example 11, 5-(1H-Indol-2-yl)-6-oxo-1,6-dihydro-pyridine-3-carboxylic acid [1-(3,4-difluoro-benzyl)-1H-pyrazol-4-yl]-amide]
> 7.00 | O=C(Nc1cnn(Cc2cc(F)cc(F)c2)c1)c1c[nH]c(=O)c(-c2cc3ccccc3[nH]2)c1 [Example 13, 5-(1H-Indol-2-yl)-6-oxo-1,6-dihydro-pyridine-3-carboxylic acid [1-(3,5-difluoro-benzyl)-1H-pyrazol-4-yl]-amide]
5.82 to 6.30 | Cc1[nH]c(=O)c(-c2cc3ccccc3[nH]2)cc1C(=O)Nc1cnn(Cc2ccccc2)c1 [Example 17, 5-(1H-Indol-2-yl)-2-methyl-6-oxo-1,6-dihydro-pyridine-3-carboxylic acid (1-benzyl-1H-pyrazol-4-yl)-amide]
> 7.00 | O=C(Nc1c[nH]c(=O)c(-c2cc3ccccc3[nH]2)c1)c1cnn(Cc2ccc(F)cc2)c1 [Example 21, 1-(4-Fluoro-benzyl)-1H-pyrazole-4-carboxylic acid [5-(1H-indol-2-yl)-6-oxo-1,6-dihydro-pyridin-3-yl]-amide]
> 7.00 | O=C(Nc1c[nH]c(=O)c(-c2cc3ccccc3[nH]2)c1)c1cnn(Cc2cccc(F)c2)c1 [Example 22, 1-(3-Fluoro-benzyl)-1H-pyrazole-4-carboxylic acid [5-(1H-indol-2-yl)-6-oxo-1,6-dihydro-pyridin-3-yl]-amide]
> 7.00 | O=C(Nc1c[nH]c(=O)c(-c2cc3ccccc3[nH]2)c1)c1cnn(Cc2ccc(F)c(F)c2)c1 [Example 24, 1-(3,4-Difluoro-benzyl)-1H-pyrazole-4-carboxylic acid [5-(1H-indol-2-yl)-6-oxo-1,6-dihydro-pyridin-3-yl]-amide]
6.30 to 7.00 | O=C(Nc1c[nH]c(=O)c(-c2cc3ccccc3[nH]2)c1)c1cnn(Cc2ccc(C(F)(F)F)cc2)c1 [Example 25, 1-(4-Trifluoromethyl-benzyl)-1H-pyrazole-4-carboxylic acid [5-(1H-indol-2-yl)-6-oxo-1,6-dihydro-pyridin-3-yl]-amide]
> 7.00 | Cc1cccc(Cn2cc(C(=O)Nc3c[nH]c(=O)c(-c4cc5ccccc5[nH]4)c3)cn2)c1 [Example 26, 1-(3-Methyl-benzyl)-1H-pyrazole-4-carboxylic acid [5-(1H-indol-2-yl)-6-oxo-1,6-dihydro-pyridin-3-yl]-amide]
